Measurements published in patent US20240408086A1, “USE OF LUVADAXISTAT FOR THE TREATMENT OF COGNITIVE IMPAIRMENT” (TAKEDA PHARMACEUTICAL COMPANY LIMITED, priority 2021, published 2024).

System: adult patients with persistent negative symptoms of schizophrenia
Format: in vivo, human
From the text: To assess changes in cognitive impairment associated with schizophrenia (CIAS), secondary endpoints included the 12-week change from baseline in the Brief Assessment of Cognition in Schizophrenia (BACS) composite score, a measure of cognition across multiple domains, and the Schizophrenia Cognition Rating Scale (SCORS) score, a measure of day-to-day cognitive functioning requiring input from an adult informant. Secondary endpoints were not corrected for multiplicity.
The BACS is specifically designed to measure treatment-related improvements in cognition and includes alternate forms. BACS is a reliable and sensitive measure of cognitive function in schizophrenia. The BACS is a cognition assessment battery that assesses 6 domains of cognitive function found to be consistently impaired in schizophrenia: verbal memory; working memory; motor speed; attention; executive functions; and verbal fluency. The primary measure from each test of the BACS is standardized by creating T-scores whereby the mean of the test session of a matched reference healthy participant is set to 50 and the standard deviation set to 10.

[1] = 125 mg once daily, MMRM, preliminary analysis
[2] = 125 mg once daily, preliminary analysis

O=c1[nH]nc(CCc2ccc(C(F)(F)F)cc2)cc1O [Compound (I), luvadaxistat]
BACS Attention Cognition Domain, Difference from Placebo for Week 6, LS Mean (SE) (50 mg, Week 6, MMRM): −0.1 (1.12)
BACS Executive Functions Cognition Domain, Adjusted Change from Baseline to Week 6, LS Mean (SE) (50 mg, Week 6, MMRM): 0.9 (1.22)
BACS Executive Functions Cognition Domain, Difference from Placebo for Week 6, LS Mean (SE) (50 mg, Week 6, MMRM): 2.1 (1.53)
BACS Verbal Fluency Cognition Domain, Adjusted Change from Baseline to Week 6, LS Mean (SE) (50 mg, Week 6, MMRM): −0.3 (0.70)
BACS Verbal Fluency Cognition Domain, Difference from Placebo for Week 6, LS Mean (SE) (50 mg, Week 6, MMRM): −0.5 (0.87)
BACS Attention Cognition Domain, Change from Baseline to Week 12, Mean (SD) (50 mg, Week 12): 2.2 (6.95)
BACS Attention Cognition Domain, Change from Baseline to Week 12, Median (50 mg, Week 12): 2.0
BACS Attention Cognition Domain, Week 12, Mean (SD) (50 mg, Week 12): 38.0 (11.83)
BACS Attention Cognition Domain, Week 12, Median (50 mg, Week 12): 39.0
BACS Executive Functions Cognition Domain, Change from Baseline to Week 12, Mean (SD) (50 mg, Week 12): 2.6 (7.73)
BACS Executive Functions Cognition Domain, Change from Baseline to Week 12, Median (50 mg, Week 12): 1.0
BACS Executive Functions Cognition Domain, Week 12, Mean (SD) (50 mg, Week 12): 46.4 (10.55)
BACS Executive Functions Cognition Domain, Week 12, Median (50 mg, Week 12): 49.5
BACS Verbal Fluency Cognition Domain, Change from Baseline to Week 12, Mean (SD) (50 mg, Week 12): 1.5 (5.87)
BACS Verbal Fluency Cognition Domain, Change from Baseline to Week 12, Median (50 mg, Week 12): 0.0
BACS Verbal Fluency Cognition Domain, Week 12, Mean (SD) (50 mg, Week 12): 41.8 (10.41)
BACS Verbal Fluency Cognition Domain, Week 12, Median (50 mg, Week 12): 40.0
BACS Attention Cognition Domain, Adjusted Change from Baseline to Week 12, LS Mean (SE) (50 mg, Week 12, MMRM): 2.3 (1.02)
BACS Attention Cognition Domain, Difference from Placebo for Week 12, LS Mean (SE) (50 mg, Week 12, MMRM): 0.4 (1.28)
BACS Executive Functions Cognition Domain, Adjusted Change from Baseline to Week 12, LS Mean (SE) (50 mg, Week 12, MMRM): 1.8 (1.09)
BACS Executive Functions Cognition Domain, Difference from Placebo for Week 12, LS Mean (SE) (50 mg, Week 12, MMRM): 1.2 (1.36)
BACS Verbal Fluency Cognition Domain, Adjusted Change from Baseline to Week 12, LS Mean (SE) (50 mg, Week 12, MMRM): 1.2 (0.85)
BACS Verbal Fluency Cognition Domain, Difference from Placebo for Week 12, LS Mean (SE) (50 mg, Week 12, MMRM): 0.2 (1.07)
BACS Verbal Memory Cognition Domain, Difference from Placebo for Week 6, LS Mean (SE) (125 mg once daily, MMRM, one-sided unadjusted p 0.025, preliminary analysis): 2.5 (1.29)
BACS Composite Score, Difference from Placebo for Week 6, LS Mean (SE) (125 mg once daily, MMRM, one-sided unadjusted p 0.038, preliminary analysis): 1.8 (1.02)
BACS Motor Speed Cognition Domain, Difference from Placebo for Week 12, LS Mean (SE) (125 mg once daily, MMRM, one-sided unadjusted p 0.067, preliminary analysis): 1.8 (1.18)
BACS Composite Score, Difference from Placebo for Week 12, LS Mean (SE) (125 mg once daily, MMRM, one-sided unadjusted p 0.095, preliminary analysis): 1.5 (1.16)
BACS Verbal Memory Cognition Domain, Difference from Placebo for Week 12, LS Mean (SE) (125 mg once daily, MMRM, one-sided unadjusted p 0.164, preliminary analysis): 1.4 (1.44)
BACS Working Memory Cognition Domain, Difference from Placebo for Week 6, LS Mean (SE) (125 mg once daily, MMRM, one-sided unadjusted p 0.239, preliminary analysis): 0.8 (1.16)
BACS Working Memory Cognition Domain, Difference from Placebo for Week 12, LS Mean (SE) (125 mg once daily, MMRM, one-sided unadjusted p 0.406, preliminary analysis): 0.3 (1.35)
BACS Motor Speed Cognition Domain, Difference from Placebo for Week 6, LS Mean (SE) (125 mg once daily, MMRM, one-sided unadjusted p 0.753, preliminary analysis): −0.9 (1.26)
BACS Composite Score, Adjusted Change from Baseline to Week 6, LS Mean (SE) [1]: 1.4 (0.80)
BACS Composite Score, Adjusted Change from Baseline to Week 12, LS Mean (SE) [1]: 2.3 (0.91)
BACS Motor Speed Cognition Domain, Adjusted Change from Baseline to Week 6, LS Mean (SE) [1]: −1.0 (0.98)
BACS Motor Speed Cognition Domain, Adjusted Change from Baseline to Week 12, LS Mean (SE) [1]: 1.3 (0.93)
BACS Verbal Memory Cognition Domain, Adjusted Change from Baseline to Week 6, LS Mean (SE) [1]: 1.2 (1.01)
BACS Verbal Memory Cognition Domain, Adjusted Change from Baseline to Week 12, LS Mean (SE) [1]: 0.8 (1.13)
BACS Working Memory Cognition Domain, Adjusted Change from Baseline to Week 6, LS Mean (SE) [1]: 0.9 (0.90)
BACS Working Memory Cognition Domain, Adjusted Change from Baseline to Week 12, LS Mean (SE) [1]: 1.0 (1.06)
BACS Composite Score, Change from Baseline to Week 6, Mean (SD) [2]: 1.9 (4.95)
BACS Composite Score, Change from Baseline to Week 6, Median [2]: 2.0
BACS Composite Score, Change from Baseline to Week 12, Mean (SD) [2]: 2.9 (6.54)
BACS Composite Score, Change from Baseline to Week 12, Median [2]: 3.5
BACS Composite Score, Week 6, Mean (SD) [2]: 35.6 (14.55)
BACS Composite Score, Week 6, Median [2]: 37.0
BACS Composite Score, Week 12, Mean (SD) [2]: 37.1 (15.02)
BACS Composite Score, Week 12, Median [2]: 38.5
BACS Motor Speed Cognition Domain, Change from Baseline to Week 6, Mean (SD) [2]: 0.0 (5.97)
BACS Motor Speed Cognition Domain, Change from Baseline to Week 6, Median [2]: 0.5
BACS Motor Speed Cognition Domain, Change from Baseline to Week 12, Mean (SD) [2]: 2.5 (7.60)
BACS Motor Speed Cognition Domain, Change from Baseline to Week 12, Median [2]: 2.0
BACS Motor Speed Cognition Domain, Week 6, Mean (SD) [2]: 39.6 (10.80)
BACS Motor Speed Cognition Domain, Week 6, Median [2]: 39.0
BACS Motor Speed Cognition Domain, Week 12, Mean (SD) [2]: 42.6 (10.35)
BACS Motor Speed Cognition Domain, Week 12, Median [2]: 42.0
BACS Verbal Memory Cognition Domain, Change from Baseline to Week 6, Mean (SD) [2]: 1.8 (7.71)
BACS Verbal Memory Cognition Domain, Change from Baseline to Week 6, Median [2]: 2.5
BACS Verbal Memory Cognition Domain, Change from Baseline to Week 12, Mean (SD) [2]: 1.6 (8.07)
BACS Verbal Memory Cognition Domain, Change from Baseline to Week 12, Median [2]: 1.0
BACS Verbal Memory Cognition Domain, Week 6, Mean (SD) [2]: 42.4 (12.62)
BACS Verbal Memory Cognition Domain, Week 6, Median [2]: 42.0
BACS Verbal Memory Cognition Domain, Week 12, Mean (SD) [2]: 42.3 (13.54)
BACS Verbal Memory Cognition Domain, Week 12, Median [2]: 42.5
BACS Working Memory Cognition Domain, Change from Baseline to Week 6, Mean (SD) [2]: 1.5 (5.89)
